Assay results reported in patent publication US12448394B2, “Heterocyclic pyrazole derivatives as type III receptor tyrosine kinase inhibitors” (DEVELOPMENT CENTER FOR BIOTECHNOLOGY, priority 2019, dated 2025).

How the values were obtained:
PDGFRα kinase = biological target: T1, PDGFRα kinase (Homo sapiens, UniProt P16234); test: PDGFRα kinase assay (AlphaScreen); format: biochemical; details: read-out: Ranking of IC50 values, PDGFRα
T1 construct: purchased SignalChem
How it was run: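 Recombinant PDGFRα (1.5 ng) phosphorylated biotinylated poly(Glu4:Tyr1) with 10 μM ATP in MOPS pH 7.0 with 10 mM MgCl2, 30 min at 30 °C, stopped with EDTA. Product detected by AlphaScreen; IC50 from serial dilutions run in duplicate.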

MET kinase = biological target: T2, MET kinase (Homo sapiens, UniProt P08581); test: MET kinase assay (AlphaScreen, counter screen); format: biochemical; details: read-out: Ranking of IC50 values, MET
T2 construct: purchased SignalChem
T2 sequence (P08581 25-1390): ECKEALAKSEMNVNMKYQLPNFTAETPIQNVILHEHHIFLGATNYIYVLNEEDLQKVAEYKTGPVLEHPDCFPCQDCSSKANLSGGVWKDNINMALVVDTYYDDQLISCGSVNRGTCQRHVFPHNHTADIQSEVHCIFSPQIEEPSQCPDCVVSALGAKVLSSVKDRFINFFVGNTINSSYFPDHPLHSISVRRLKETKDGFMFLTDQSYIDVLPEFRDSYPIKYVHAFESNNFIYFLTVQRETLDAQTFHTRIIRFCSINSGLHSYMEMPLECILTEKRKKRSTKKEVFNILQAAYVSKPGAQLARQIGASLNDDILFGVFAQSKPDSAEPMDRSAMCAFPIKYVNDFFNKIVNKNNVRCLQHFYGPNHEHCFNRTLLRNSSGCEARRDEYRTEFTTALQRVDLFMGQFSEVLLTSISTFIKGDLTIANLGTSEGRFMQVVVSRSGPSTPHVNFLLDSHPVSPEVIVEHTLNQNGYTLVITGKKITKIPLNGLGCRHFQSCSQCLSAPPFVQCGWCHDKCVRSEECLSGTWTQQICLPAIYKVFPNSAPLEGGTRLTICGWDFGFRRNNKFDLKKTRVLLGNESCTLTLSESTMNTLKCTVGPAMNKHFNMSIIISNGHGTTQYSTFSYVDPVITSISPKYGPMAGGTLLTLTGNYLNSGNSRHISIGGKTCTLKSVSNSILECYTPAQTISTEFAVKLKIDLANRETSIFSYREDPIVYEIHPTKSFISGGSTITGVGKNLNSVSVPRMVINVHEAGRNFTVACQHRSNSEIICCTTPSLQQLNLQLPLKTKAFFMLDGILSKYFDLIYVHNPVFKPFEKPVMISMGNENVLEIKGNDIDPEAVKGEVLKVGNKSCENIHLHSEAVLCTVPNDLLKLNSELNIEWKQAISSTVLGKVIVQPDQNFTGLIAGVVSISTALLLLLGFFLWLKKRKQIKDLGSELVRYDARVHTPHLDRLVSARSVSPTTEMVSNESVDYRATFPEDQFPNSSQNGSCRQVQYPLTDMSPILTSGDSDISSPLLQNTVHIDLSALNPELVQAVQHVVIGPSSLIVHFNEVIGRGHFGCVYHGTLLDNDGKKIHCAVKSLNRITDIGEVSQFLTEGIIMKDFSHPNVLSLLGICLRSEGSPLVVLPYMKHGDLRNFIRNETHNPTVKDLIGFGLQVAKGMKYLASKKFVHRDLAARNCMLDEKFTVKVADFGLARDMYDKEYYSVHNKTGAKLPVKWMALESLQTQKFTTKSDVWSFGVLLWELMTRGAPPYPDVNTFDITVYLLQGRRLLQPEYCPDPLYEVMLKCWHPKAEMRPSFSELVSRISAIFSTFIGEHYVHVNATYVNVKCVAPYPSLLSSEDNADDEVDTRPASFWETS
How it was run: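 Recombinant MET kinase (1 ng) phosphorylated biotinylated poly(Glu4:Tyr1) with […] ATP (so in the source) in MOPS pH 7.0 buffer with 10 mM MgCl2, 45 min at 30 °C, stopped with EDTA. Product read by AlphaScreen; IC50 from serial dilutions run in duplicate.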

[1] = tested on: MV4-11 human acute myeloid leukemia cell with FLT3-ITD mutation; test: MV4-11 cell proliferation assay (CellTiter 96); format: cell-based; details: Homo sapiens, MV4-11, 72 h, MV4-11 cells, 72 hours treatment, CellTiter96; read-out: anti-proliferation activity MV4-11 (FLT3-ITD), IC50 ranking
How it was run: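 Cells seeded at 6500/well in IMDM with 10% heat-inactivated FBS, left overnight at 37 °C, 5% CO2, then exposed to increasing compound concentrations for 72 h. Viability read as absorbance at 490 nm after 2–4 h with CellTiter96 AQueous One reagent.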

[2] = tested on: THP-1 human acute monocytic leukemia cell with NRAS G12D mutation; test: THP-1 cell proliferation assay (counter screen); format: cell-based; details: Homo sapiens, THP-1 cells, 72 hours treatment, CellTiter96, read-out: anti-proliferation activity THP-1 NRAS N12D, IC50 ranking
How it was run: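 THP-1 cells (NRAS G12D, growth independent of class III RTK signaling) seeded at 5000 cells/well overnight, then exposed to increasing compound concentrations for 72 h at 37° C, 5% CO2. Viability read by CellTiter96 AQueous One reagent (2–4 h) as absorbance at 490 nm.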

[3] = tested on: A375 melanoma cell with BRAF V600E mutation; test: A375 cell proliferation assay (counter screen); format: cell-based, human; details: Homo sapiens, A-375, A375 cells, 72 hours treatment, CellTiter96, read-out: anti-proliferation activity A375 BRAF V600E, IC50 ranking
How it was run: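 A375 cells (BRAF V600E) seeded at 2000 cells/well in DMEM with 10% FBS, settled overnight at 37° C, 5% CO2, then exposed to increasing compound concentrations for 72 hours. Viability read by MTS-type CellTiter96 AQueous reagent, absorbance at 490 nm after 2–4 hours.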

[4] = tested on: HCC827 NSCLC cell with EGFR exon 19 deletion mutation; test: HCC827 cell proliferation assay (counter screen); format: cell-based, human; details: Homo sapiens, HCC827 cells, 72 hours treatment, CellTiter96, read-out: anti-proliferation activity HCC827 EGFR Exon19 del, IC50 ranking
How it was run: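 HCC827 cells (EGFR exon 19 deletion) were seeded at 8000 cells/well in RPMI1640 with 10% FBS, then exposed to increasing compound concentrations for 72 h at 37 °C. Viability was read by CellTiter96 AQueous One (MTS), absorbance 490 nm after 2–4 h.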

T1 sequence (P16234 24-1089): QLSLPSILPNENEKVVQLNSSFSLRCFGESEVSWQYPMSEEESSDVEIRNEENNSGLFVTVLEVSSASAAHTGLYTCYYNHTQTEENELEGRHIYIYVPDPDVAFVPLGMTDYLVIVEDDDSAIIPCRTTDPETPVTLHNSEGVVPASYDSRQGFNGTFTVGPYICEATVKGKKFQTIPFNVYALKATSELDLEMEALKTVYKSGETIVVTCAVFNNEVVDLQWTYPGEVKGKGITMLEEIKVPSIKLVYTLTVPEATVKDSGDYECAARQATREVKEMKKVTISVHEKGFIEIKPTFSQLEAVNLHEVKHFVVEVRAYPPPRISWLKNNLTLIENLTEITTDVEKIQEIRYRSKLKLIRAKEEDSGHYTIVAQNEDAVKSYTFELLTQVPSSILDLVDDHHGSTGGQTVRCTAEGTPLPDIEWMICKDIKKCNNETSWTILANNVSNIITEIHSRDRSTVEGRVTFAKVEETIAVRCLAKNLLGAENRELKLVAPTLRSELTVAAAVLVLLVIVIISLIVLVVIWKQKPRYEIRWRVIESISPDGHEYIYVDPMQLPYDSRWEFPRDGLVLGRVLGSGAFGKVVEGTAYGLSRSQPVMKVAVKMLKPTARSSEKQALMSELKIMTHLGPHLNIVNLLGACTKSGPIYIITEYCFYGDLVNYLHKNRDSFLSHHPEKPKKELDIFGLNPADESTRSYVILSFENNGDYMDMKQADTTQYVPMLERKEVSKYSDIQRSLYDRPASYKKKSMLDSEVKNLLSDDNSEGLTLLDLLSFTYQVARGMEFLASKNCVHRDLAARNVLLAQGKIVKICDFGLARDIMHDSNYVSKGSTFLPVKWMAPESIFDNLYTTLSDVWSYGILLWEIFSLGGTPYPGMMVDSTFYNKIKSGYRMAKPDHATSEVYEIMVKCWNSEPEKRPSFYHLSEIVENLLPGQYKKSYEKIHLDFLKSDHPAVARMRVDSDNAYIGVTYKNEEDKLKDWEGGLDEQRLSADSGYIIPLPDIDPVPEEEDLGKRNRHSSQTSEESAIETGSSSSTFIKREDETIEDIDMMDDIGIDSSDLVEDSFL

IC50 (PDGFRα kinase) [nM]	IC50 (MET kinase) [nM]	IC50 [1] [nM]	Compound	IC50 [2] [nM]	IC50 [3] [nM]	IC50 [4] [nM]
10 to 30	> 1000	30 to 100	COc1ccc(-c2cc3c(s2)Cc2c(-c4ccc5[nH]ncc5c4)n[nH]c2-3)cn1 [Compound 1, 3-(1H-indazol-5-yl)-6-(6-methoxypyridin-3-yl)-1,4-dihydrothieno[2′,3′:4,5] cyclopenta[1,2-c]pyrazole]	> 10000	> 10000	> 10000
10 to 30	> 1000	30 to 100	COc1ccc(-c2cc3c(s2)Cc2c(-c4ccc5cn[nH]c5c4)n[nH]c2-3)cn1 [Compound 2, 3-(1H-indazol-6-yl)-6-(6-methoxypyridin-3-yl)-1,4-dihydrothieno[2′,3′:4,5] cyclopenta[1,2-c]pyrazole]	> 10000	> 10000	> 10000
1 to 10	> 1000	< 30	Nc1ccc(-c2cc3c(s2)Cc2c(-c4ccc5cn[nH]c5c4)n[nH]c2-3)cn1 [Compound 3, 5-(3-(1H-indazol-6-yl)-1,4-dihydrothieno[2′,3′:4,5]cyclopenta[1,2-c]pyrazol-6-yl)pyridin-2-amine]	> 10000	> 10000	> 10000
10 to 30	> 1000	100 to 300	COc1ccc(-c2cc3c(s2)Cc2c(-c4ccc5cnn(C)c5c4)n[nH]c2-3)cn1 [Compound 4, 6-(6-methoxypyridin-3-yl)-3-(1-methyl-1H-indazol-6-yl)-1,4-dihydrothieno [2′,3′:4,5]cyclopenta[1,2-c] pyrazole]	> 10000	> 10000	> 10000
1 to 10	> 1000	30 to 100	Cc1ccc(-c2cc3c(s2)Cc2c(-c4ccc5cn[nH]c5c4)n[nH]c2-3)cn1 [Compound 30, 3-(1H-indazol-6-yl)-6-(6-methylpyridin-3-yl)-1,4-dihydrothieno[2′,3′:4,5] cyclopenta[1,2-c]pyrazole]	> 10000	> 10000	> 10000
1 to 10	> 1000	< 30	Cc1ccc(-c2cc3c(s2)Cc2c(-c4ccc5[nH]ncc5c4)n[nH]c2-3)cn1 [Compound 36, 3-(1H-indazol-5-yl)-6-(6-methylpyridin-3-yl)-1,4-dihydrothieno[2′,3′:4,5] cyclopenta[1,2-c]pyrazole]	> 10000	> 10000	> 10000
1 to 10	> 1000	< 30	Nc1ccc(-c2cc3c(s2)Cc2c(-c4ccc5[nH]ncc5c4)n[nH]c2-3)cn1 [Compound 40, 5-(3-(1H-indazol-5-yl)-1,4-dihydrothieno [2′,3′:4,5]cyclopenta [1,2-c]pyrazol-6-yl) pyridin-2-amine]	1000 to 10000	1000 to 10000	1000 to 10000
10 to 30	> 1000	< 30	Cn1ncc2ccc(-c3n[nH]c4c3Cc3sc(-c5ccc(CN6CCOC6=O)cc5)cc3-4)cc21 [Compound 62, 3-(4-(3-(1-methyl-1H-indazol-6-yl)-1,4-dihydro-thieno[2′,3′:4,5]cyclopenta [1,2-c]pyrazol-6-yl)benzyl)oxazolidin-2-one]	> 10000	> 10000	> 10000
1 to 10	> 1000	100 to 300	Cc1n[nH]c2cc(-c3n[nH]c4c3Cc3sc(-c5ccc(CN6CCOCC6)cc5)cc3-4)ccc12 [Compound 81, 4-(4-(3-(3-methyl-1H-indazol-6-yl)-1,4-dihydro-thieno[2′,3′:4,5]cyclopenta [1,2-c]pyrazol-6-yl)benzyl)morpholine]	1000 to 10000	1000 to 10000	> 10000
100 to 300	> 1000	100 to 300	Cn1ncc2ccc(-c3n[nH]c4c3Cc3sc(-c5ccc(N6CCOCC6)nc5)cc3-4)cc21 [Compound 82, 4-(5-(3-(1-methyl-1H-indazol-6-yl)-1,4-dihydro-thieno[2′,3′:4,5]cyclopenta [1,2-c]pyrazol-6-yl)pyridin-2-yl)morpholine]	> 10000	1000 to 10000	> 10000
1 to 10	300 to 1000	< 30	CN1CCN(Cc2ccc(-c3cc4c(s3)Cc3c(-c5ccc6cn[nH]c6c5)n[nH]c3-4)cc2)CC1 [Compound 83, 3-(1H-indazol-6-yl)-6-(4-((4-methylpiperazin-1-yl)methyl)phenyl)-1,4-dihydrothieno[2′,3′:4,5] cyclopenta[1,2-c]pyrazole]	> 10000	> 10000	> 10000
1 to 10	> 1000	< 30	CN1CCN(Cc2ccc(-c3cc4c(s3)Cc3c(-c5ccc6cnn(C)c6c5)n[nH]c3-4)cc2)CC1 [Compound 84, 3-(1-methyl-1H-indazol-6-yl)-6-(4-((4-methylpiperazin-1-yl)methyl)phenyl)-1,4-dihydrothieno [2′,3′:4,5]cyclopenta [1,2-c]pyrazole]	> 10000	> 10000	> 10000
1 to 10	300 to 1000	< 30	CN1CCN(c2ccc(-c3cc4c(s3)Cc3c(-c5ccc6cnn(C)c6c5)n[nH]c3-4)cn2)CC1 [Compound 85, 3-(1-methyl-1H-indazol-6-yl)-6-(6-(4-methyl-piperazin-1-yl)pyridin-3-yl)-1,4-dihydrothieno [2′,3′:4,5]cyclopenta [1,2-c]pyrazole]	> 10000	1000 to 10000	> 10000
10 to 30	> 1000	30 to 100	Cn1ncc2ccc(-c3n[nH]c4c3Cc3sc(-c5ccnc(Cl)c5)cc3-4)cc21 [Compound 86, 6-(2-chloropyridin-4-yl)-3-(1-methyl-1H-indazol-6-yl)-1,4-dihydrothieno [2′,3′:4,5]cyclopenta [1,2-c]pyrazole]	> 10000	> 10000	> 10000
1 to 10	300 to 1000	30 to 100	CN1CCN(c2cc(-c3cc4c(s3)Cc3c(-c5ccc6cnn(C)c6c5)n[nH]c3-4)ccn2)CC1 [Compound 87, 3-(1-methyl-1H-indazol-6-yl)-6-(2-(4-methyl-piperazin-1-yl)pyridin-4-yl)-1,4-dihydrothieno [2′,3′:4,5]cyclopenta [1,2-c]pyrazole]	> 10000	> 10000	> 10000
30 to 100	> 1000	300 to 1000	Cn1ncc2ccc(-c3n[nH]c4c3Cc3sc(-c5ccc(CN6CCOCC6)c(F)c5F)cc3-4)cc21 [Compound 88, 4-(2,3-difluoro-4-(3-(1-methyl-1H-indazol-6-yl)-1,4-dihydrothieno [2′,3′:4,5]cyclopenta [1,2-c]pyrazol-6-yl)benzyl)morpholine]	> 10000	> 10000	> 10000
1 to 10	> 1000	30 to 100	Cn1nnc2ccc(-c3n[nH]c4c3Cc3sc(-c5ccc(CN6CCOCC6)cc5)cc3-4)cc21 [Compound 89, 4-(4-(3-(1-methyl-1H-benzo[d][1,2,3]triazol-6-yl)-1,4-dihydrothieno [2′,3′:4,5]cyclopenta [1,2-c]pyrazol-6-yl)benzyl)morpholine]	> 10000	> 10000	> 10000
100 to 300	> 1000	300 to 1000	Cn1ncc2ccc(-c3n[nH]c4c3Cc3sc(-c5ccc(CN6CCOCC6)cc5OC(F)(F)F)cc3-4)cc21 [Compound 90, 4-(4-(3-(1-methyl-1H-indazol-6-yl)-1,4-dihydro-thieno[2′,3′:4,5]cyclopenta [1,2-c]pyrazol-6-yl)-3-(trifluoromethoxy)benzyl) morpholine]	> 10000	> 10000	> 10000
